Reference: PubChem BioAssay AID2743 (NMMLSC, 2010)
Where “and” joins values, the source holds several entries; their conditions need not be identical. Equal entries are not always repeated. Calls of active or inactive are those of the source.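 The calls were made as follows: active = fitted half-maximal concentration for change in GFP expression of 33 µM or less; inactive = the rest.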

Assay: potency of AGP1-GFP expression modulators in yeast, dose response, cell-based, flow cytometry, S. cerevisiae, MLPCN hits (AID 2743)
Settings: S. cerevisiae AGP1-GFP strain, flow cytometry GFP, 3 h; at 33 µM (top of the series)

| SMILES | GFP fluorescence (kMESF) |
| --- | --- |
| CN(C)c1ccc(N=Cc2nc(-c3ccccc3)oc2OC(=O)c2cccc(Cl)c2)cc1 | 30.1 kMESF (inactive) |
| Cc1ccc(/C=C2\SC(=S)N(CC3CCCO3)C2=O)o1 (centres undefined) | 42 kMESF (inactive) |
| C#CCOCCOCCOCCNc1nc(N2CCN(C(=O)CCCCCCCCCCNC(=O)[C@@H](CCC(=O)O)n3cc(CCCCCN)nn3)CC2)nc(N2CCN(C(=O)CCCCCCCCCCNC(=O)[C@H](CCCCN)n3cc(C[C@@H](C)CC)nn3)CC2)n1 | 51.4 kMESF (inactive) |
| CC1=C(C)/C(=N\OS(=O)(=O)c2ccc(C)cc2)C=CC1=O | 31.9 kMESF (inactive) |
| O=C1NC(=O)N(c2ccccc2)C(=O)/C1=C/c1ccc(Sc2ccccc2)o1 | 35.9 kMESF (inactive) |
| O=C1Nc2ccccc2/C1=C\C(=O)c1ccccc1 | 38.3 kMESF (inactive) |
| O=C1C(Cl)=C(Nc2ccccc2O)C(=O)N1c1ccccc1 | 38.4 kMESF (inactive) |
| Cc1cccc(N=C2NC(=O)/C(=C/C=C/c3ccco3)S2)c1C | 23.3 kMESF (inactive) |
| Cc1ccc2c(c1)c(/C=C/c1cc[n+](C)cc1)c(C)n2C | 48.2 kMESF (inactive) |
| COC(=O)CCCC1=CC2=CC(=O)C(C)(OC(=O)CCc3ccccc3)C(=O)C2=CO1 (centres undefined) | 29.2 kMESF (inactive) |
| CN(C)c1ccc(N=Cc2nc(-c3ccccc3)oc2OC(=O)c2ccccc2)cc1 | 43 kMESF (inactive) |
| CCCCC(=O)NC(=S)NNC(=O)CCc1ccccc1 | 28.1 kMESF (inactive) |
| O=C1C(=O)c2ccccc2-c2ccccc21 | 17.5 kMESF (inactive) |
| N#Cc1nccnc1S(=O)(=O)c1cccs1 | 38.7 kMESF (inactive) |
| O=C1NC(=O)N(Cc2ccco2)C(=O)/C1=C/c1ccc(-c2cccc([N+](=O)[O-])c2)o1 | 34.8 kMESF (inactive) |
| O=C(/C=C/c1cccc([N+](=O)[O-])c1)c1ccc([N+](=O)[O-])o1 | 10.4 kMESF (inactive) |
| Nc1ccc(Br)c2c1C(=O)c1ccccc1C2=O | 27.1 kMESF (inactive) |
| Cc1cc(C(=O)COC(=O)c2ccc[nH]c2=O)c(C)n1-c1ccccc1F | 24.1 kMESF (inactive) |
| Cc1c(NC2=C(Cl)C(=O)N(c3ccccc3Cl)C2=O)c(=O)n(-c2ccccc2)n1C | 38.1 kMESF (inactive) |
| O=C(Oc1oc(-c2ccco2)nc1C=Nc1ccc(Cl)cc1)c1ccco1 | 42 kMESF (inactive) |
| O=C(OCn1ncc(Br)c(Br)c1=O)c1c(F)cccc1F | 42.7 kMESF (inactive) |
| Cc1[nH][nH]c(=O)c1C(c1ccc(-c2ccc(Cl)c(Cl)c2)o1)c1c(C)[nH][nH]c1=O | 43.7 kMESF (inactive) |
| Cc1ccc(/C(N)=N/OC(=O)c2ccc(F)cc2)cc1 | 23.1 kMESF (inactive) |

| SMILES | GFP fluorescence (kMESF) |
| --- | --- |
| CCCN1CCc2c(sc(NC(=S)NC(=O)c3ccccc3)c2C#N)C1 | 42 kMESF (inactive) |
| O=C(O)c1ccc(COc2ccccc2C=C2C(=O)c3ccccc3C2=O)cc1 | 32.6 kMESF (inactive) |
| COc1ccc(-c2cc3nc4n(c(=O)c3s2)CCC4)cc1 | 23.3 kMESF (inactive) |
| COc1ccc(N/N=C(\C#N)C(N)=O)cc1 | 52.4 kMESF (inactive) |
| COc1ccc([N+](=O)[O-])c(S(=O)(=O)c2ccc(Cl)cc2)n1 | 37.1 kMESF (inactive) |
| CCOC(=O)CS(=O)(=O)c1nc(-c2ccc(F)cc2)cc(C(F)(F)F)n1 | 50.7 kMESF (inactive) |
| CC(=O)N(\C=C/C=C/C=C1\Sc2ccccc2C1=O)c1ccccc1 | 38.7 kMESF (inactive) |
| Cc1[nH]n(-c2ccccc2)c(=O)c1C(c1ccccc1[N+](=O)[O-])C(C#N)C#N (centres undefined) | 36.6 kMESF (inactive) |
| O=C1C(Cl)=C(NCCc2ccccc2)C(=O)N1CCc1ccccc1 | 43.3 kMESF (inactive) |
| O=C(c1ccccn1)c1conc1C(=O)c1ccc(Br)cc1 | 39.4 kMESF (inactive) |
| CCOc1ccc(NC2=C(Cl)C(=O)N(Cc3ccccc3)C2=O)cc1 | 41.3 kMESF (inactive) |
| CNC(CC(=O)c1ccc([N+](=O)[O-])cc1)C(Cl)(Cl)Cl (centres undefined) | 25.2 kMESF (inactive) |
| Oc1c(C(Nc2cccc(C(F)(F)F)c2)c2ccncc2)ccc2cccnc12 (centres undefined) | 30.3 kMESF (inactive) |
| CN(Cc1cnc2nc(N)nc(N)c2n1)c1ccc(C(=O)N[C@@H](CCC(=O)O)C(=O)O)cc1 | 45.5 kMESF (inactive) and 51.9 kMESF (inactive) |
| O=C(Oc1c(Cl)cc(Cl)c2cccnc12)c1ccco1 | 40.7 kMESF (inactive) |
| Cc1ccc(N2C(=O)C(Cl)=C(Nc3c(C)n(C)n(-c4ccccc4)c3=O)C2=O)cc1 | 35 kMESF (inactive) |
| Cc1ccc2[nH]cc(/C=C/c3cc[n+](C)cc3)c2c1 | 48.3 kMESF (inactive) |
| CCOC(=O)c1c(C)oc2c1c(C(c1cccnc1)N1CCOCC1)c(O)c1ccccc12 (centres undefined) | 29.9 kMESF (inactive) |
| O=C(/C=C/c1ccc(F)cc1)NC(=S)NNC(=O)c1cnccn1 | 35.8 kMESF (inactive) |
| Cc1ccc(/C=C2/SC(=S)N(C3CCCCC3)C2=O)o1 | 41.3 kMESF (inactive) |
| CC1(C)OC(c2ccccc2)=C/C(=C/C=C2C(=O)NC(=S)NC2=O)O1 | 36.6 kMESF (inactive) |
| O=C(OCC(=O)N1CCN(C(=O)c2ccco2)CC1)c1cc(-c2ccc(Cl)c(Cl)c2Cl)nc2ccccc12 | 50.9 kMESF (inactive) |
| Oc1ccc(CNc2ccccc2)c2cccnc12 | 36.5 kMESF (inactive) |

| SMILES | GFP fluorescence (kMESF) |
| --- | --- |
| Cc1ccc(S(=O)(=O)N2CCCC2C(=O)NCc2ccncc2)cc1 (centres undefined) | 32.1 kMESF (inactive) |
| CC(C)(C)c1cc(C(c2cccnc2)N2CCN(CCO)CC2)cc(C(C)(C)C)c1O (centres undefined) | 42.2 kMESF (inactive) |
| O=S1(=O)C=C(Sc2nc3ccccc3s2)c2ccccc21 | 34.3 kMESF (inactive) |
| O=C(O)c1cc[c]([Hg][Cl])cc1 | 32.1 kMESF (inactive) |
| Cc1c(N2C(=O)/C(=C\c3ccccc3O)SC2=S)c(=O)n(-c2ccccc2)n1C | 44.8 kMESF (inactive) |
| COc1ccc([C@@]2(C(C)C)ON(c3ccccc3C(F)(F)F)C2=O)cc1 | 39.4 kMESF (inactive) |
| O=C(Nc1ccc(Cl)cc1)ON=C1CCCC1 | 28 kMESF (inactive) |
| O=C1c2ccccc2C(=O)N1OS(=O)(=O)c1ccccc1 | 29.6 kMESF (inactive) |
| O=C1C=C(c2ccc(Cl)cc2)C(=O)N1Nc1ccccc1 | 24.4 kMESF (inactive) |
| c1ccc(-c2csc(Nc3cccnc3)n2)nc1 | 32.1 kMESF (inactive) |
| N/C(=N\OC(=O)c1cc(Br)ccc1Cl)c1ccccn1 | 31.3 kMESF (inactive) |
| Cc1ccccc1OCC(=O)NNC(=S)NC(=O)c1ccco1 | 43.5 kMESF (inactive) |
| Oc1ccc2ccccc2c1N=Nc1nccs1 | 43.4 kMESF (inactive) |
| Oc1c(I)cc(I)c2cccnc12 | 24.6 kMESF (inactive) |
| N/C(Cc1ccc(Cl)cc1)=N\OC(=O)c1cccc2ccccc12 | 33 kMESF (inactive) |
| COc1cc(/C=C2\C(=O)N(CCC#N)N=C2C)c(Br)cc1OC(C)C | 43.5 kMESF (inactive) |
| CC(C)[C@]1(c2ccc(Cl)cc2)ON(c2ccccc2C(F)(F)F)C1=O | 39.3 kMESF (inactive) |
| O=C(Nc1ccc(O)cc1)C1CCCN1S(=O)(=O)c1ccc(F)cc1 (centres undefined) | 42.4 kMESF (inactive) |
| N/C(Cc1ccc(Cl)c(Cl)c1)=N\OC(=O)c1cccs1 | 29.8 kMESF (inactive) |
| COc1cc(CNC(=O)CCCCCCC(C)C)ccc1O | 46.8 kMESF (inactive) |
| CCc1cccc2sc(N3CCN(C(=O)c4ccc([N+](=O)[O-])o4)CC3)nc12 | 12.4 kMESF (inactive) |
| O=C(Oc1cccc2cccnc12)c1ccc(Br)o1 | 38.2 kMESF (inactive) |
| Cc1nn(C)c(C)c1N1C(=O)c2cccc3c(Br)ccc(c23)C1=O | 40.8 kMESF (inactive) |

| SMILES | GFP fluorescence (kMESF) |
| --- | --- |
| Cc1cccnc1Nc1nc(-c2ccccn2)cs1 | 31 kMESF (inactive) |
| COc1ccc(OC)c(S(=O)(=O)ON2C(=O)c3ccccc3C2=O)c1 | 39.4 kMESF (inactive) |
| CC(=O)SC(C[N+](=O)[O-])c1cn(C(C)=O)c2ccccc12 (centres undefined) | 36.3 kMESF (inactive) |
| Cc1cc(C)c(S(=O)(=O)ON2C(=O)c3ccccc3C2=O)cc1C | 42.8 kMESF (inactive) |
| O=C1C2C3C=CC(CO)(O3)C2C(=O)N1c1ccc(-c2ccccc2)cc1 (centres undefined) | 40.8 kMESF (inactive) |
| COc1ccc(OCC(=O)NNC(=S)NC(=O)C2CCCCC2)cc1 | 35.6 kMESF (inactive) |
| O=C(/C=C/c1ccccc1)NC(=S)NNC(=O)Cc1cccs1 | 41.4 kMESF (inactive) |
| Cc1cc(=O)n2c3c(sc2n1)C(=O)N(Cc1ccccc1)C3=O | 44.3 kMESF (inactive) |
| Cc1cc2ccccn2c1C(=O)c1ccc([N+](=O)[O-])o1 | 26 kMESF (inactive) |
| Cc1ccc(S(=O)(=O)c2ccc([N+](=O)[O-])cn2)cc1 | 40.7 kMESF (inactive) |
| Cc1ccc(/C=C2\SC(=S)N(Cc3ccccc3)C2=O)o1 | 38.4 kMESF (inactive) |
| CCOC(=O)c1cc(-c2ccc(/C=C3/C(=O)NC(=O)C(C#N)=C3C)o2)ccc1Cl | 28.2 kMESF (inactive) |
| Cc1ccc(-c2nn(C(C)(C)C)c3ncnc(N)c23)cc1 | 40.2 kMESF (inactive) |
| Cc1ccc(/C=C2\C(=O)NC(=S)N(c3ccc(F)cc3)C2=O)s1 | 31.9 kMESF (inactive) |
| COc1cccc(N=Cc2nc(-c3ccccc3)oc2OC(C)=O)c1 | 35.9 kMESF (inactive) |
| Cc1ccccc1[C@]1(C)ON(c2ccccc2C(F)(F)F)C1=O | 34.6 kMESF (inactive) |
| Cc1c(C(=O)Nc2nc(-c3ccccn3)cs2)oc2ccccc12 | 35.6 kMESF (inactive) |
| O=C(/C=C/c1ccccn1)c1ccc(Br)cc1O | 20.4 kMESF (inactive) |
| O=C(Oc1oc(-c2ccco2)nc1C=Nc1ccccc1)c1ccco1 | 43.5 kMESF (inactive) |
| Cc1ccc(/C=C/C(=O)c2ccccc(=O)c2O)c(C)c1 | 28.9 kMESF (inactive) |
